What was measured:
interferon = test: Interferon induction in mice; format: in vivo; conditions: mouse serum
Experimental: One hour later blood samples are withdrawn from the first group. The samples are pooled then centrifuged. The serum is removed from the centrifuge tube, split into two portions, then placed in freezing vials and maintained at −70° C. until analysis. This procedure is repeated at 2 hours with the second group of mice and at 4 hours with the third group of mice. Samples are assayed as described above in connection with the analysis of interferon induction in human cells. The results are expressed in the table below as α/β reference units/mL based on the value obtained for a mouse MU-1-IF standard. Results are shown in the table below wherein results designated as “<” a certain number indicate that interferon was not detectable in amounts above the lower sensitivity level of the assay.

interferon-α = test: Interferon-α induction in human cells, PBM; format: cell-based; conditions: 24 hours

| Compound | Interferon induction in mice (interferon; oral 0.3 mg/kg, 1 hr) | Interferon induction in mice (interferon; oral 0.3 mg/kg, 2 hr) | Interferon induction in mice (interferon; oral 0.3 mg/kg, 4 hr) | Interferon induction in mice (interferon; oral 1 mg/kg, 1 hr) | Interferon induction in mice (interferon; oral 1 mg/kg, 2 hr) | Interferon induction in mice (interferon; oral 1 mg/kg, 4 hr) | Interferon induction in mice (interferon; oral 3 mg/kg, 1 hr) | Interferon induction in mice (interferon; oral 3 mg/kg, 2 hr) | Interferon induction in mice (interferon; oral 3 mg/kg, 4 hr) | Interferon induction in mice (interferon; oral 10 mg/kg, 1 hr) | Interferon induction in mice (interferon; oral 10 mg/kg, 2 hr) | Interferon induction in mice (interferon; oral 10 mg/kg, 4 hr) | Interferon-α induction (interferon-α; dose concentration 0.01 μg/mL) | Interferon-α induction (interferon-α; dose concentration 0.05 μg/mL) | Interferon-α induction (interferon-α; dose concentration 0.10 μg/mL) | Interferon-α induction (interferon-α; dose concentration 0.50 μg/mL) | Interferon-α induction (interferon-α; dose concentration 1.0 μg/mL) | Interferon-α induction (interferon-α; dose concentration 5.0 μg/mL) |
| --- | --- | --- | --- | --- | --- | --- | --- | --- | --- | --- | --- | --- | --- | --- | --- | --- | --- | --- |
| 1-Butyl-2-methoxyethyl-1H-imidazo[4,5-c]quinolin-4-amine [Example 115] | ˜380 Reference Units/mL | 2500 Reference Units/mL | ˜360 Reference Units/mL | 1400 Reference Units/mL | 2900 Reference Units/mL | ˜310 Reference Units/mL | 2200 Reference Units/mL | 5300 Reference Units/mL | ˜310 Reference Units/mL | 5600 Reference Units/mL | 5300 Reference Units/mL | 870 Reference Units/mL | 91 α Reference Units/mL | 96 α Reference Units/mL | 120 α Reference Units/mL | 190 α Reference Units/mL | 190 α Reference Units/mL | 240 α Reference Units/mL |
| 4-Amino-N-hydroxyethyl-N-methyl-1-phenylmethyl-1H-imidazo[4,5-c]quinoline-2-methanamine Hemihydrate [Example 30] | <120 Reference Units/mL | <120 Reference Units/mL | <120 Reference Units/mL | <120 Reference Units/mL | <120 Reference Units/mL | <120 Reference Units/mL | <120 Reference Units/mL | <120 Reference Units/mL | <120 Reference Units/mL | <120 Reference Units/mL | 600 Reference Units/mL | <120 Reference Units/mL | – | – | <4 α Reference Units/mL | <4 α Reference Units/mL | <4 α Reference Units/mL | 72 α Reference Units/mL |
| 4-Amino-α-butyl-1-(2-methylpropyl)-1H-imidazo[4,5-c]quinoline-2-methanol Hemihydrate [Example 60] | 120 Reference Units/mL | 870 Reference Units/mL | ≦56 Reference Units/mL | 290 Reference Units/mL | 1500 Reference Units/mL | 120 Reference Units/mL | 380 Reference Units/mL | 870 Reference Units/mL | 290 Reference Units/mL | 870 Reference Units/mL | 3400 Reference Units/mL | 1100 Reference Units/mL | – | – | 1700 α Reference Units/mL | 430 α Reference Units/mL | 570 α Reference Units/mL | 570 α Reference Units/mL |
| Nc1nc2ccccc2c2c1nc(CN1CCOCC1)n2Cc1ccccc1 [Example 29, 2-Morpholinomethyl-1-phenylmethyl-1H-imidazo-[4,5-c]quinolin-4-amine] | <45 Reference Units/mL | <45 Reference Units/mL | <45 Reference Units/mL | <45 Reference Units/mL | <45 Reference Units/mL | <45 Reference Units/mL | <45 Reference Units/mL | <45 Reference Units/mL | <45 Reference Units/mL | <45 Reference Units/mL | <45 Reference Units/mL | <45 Reference Units/mL | – | – | <5.4 α Reference Units/mL | 440 α Reference Units/mL | 1000 α Reference Units/mL | 580 α Reference Units/mL |
| CC(C)Cn1c(C(O)c2ccc(Cl)cc2)nc2c(N)nc3ccccc3c21 (stereo not drawn) [Example 55, 4-Amino-α-(4-chlorophenyl)-1-(2-methylpropyl)-1H-imidazo[4,5-c]quinoline-2-methanol] | – | – | – | – | – | – | – | – | – | – | – | – | – | – | <4 α Reference Units/mL | 1500 α Reference Units/mL | 1500 α Reference Units/mL | 490 α Reference Units/mL |
| CCCCC(c1nc2c(N)nc3ccccc3c2n1CC(C)C)N1CCOCC1 (centres unmarked) [Example 62, 2-[1-(1-Morpholino)pentyl]1-1-(2-methylpropyl)-1H-imidazo[4,5-c]quinolin-4-amine] | <56 Reference Units/mL | <56 Reference Units/mL | <56 Reference Units/mL | <56 Reference Units/mL | 97 Reference Units/mL | <56 Reference Units/mL | 220 Reference Units/mL | 870 Reference Units/mL | 160 Reference Units/mL | 380 Reference Units/mL | 1100 Reference Units/mL | 380 Reference Units/mL | – | – | <5 α Reference Units/mL | <5 α Reference Units/mL | 31 α Reference Units/mL | 760 α Reference Units/mL |
| CC(=O)OC(C)c1nc2c(N)nc3ccccc3c2n1CC(C)C.O (stereo not drawn) [Example 69, 4-Amino-α-methyl-1-(2-methylpropyl)-1H-imidazo[4,5-c]quinoline-2-methyl Acetate Hydrate] | <150 Reference Units/mL | <150 Reference Units/mL | <150 Reference Units/mL | <150 Reference Units/mL | <150 Reference Units/mL | <150 Reference Units/mL | ≦270 Reference Units/mL | ≦150 Reference Units/mL | <150 Reference Units/mL | 1000 Reference Units/mL | 1000 Reference Units/mL | ≦340 Reference Units/mL | <6.4 α Reference Units/mL | <6.4 α Reference Units/mL | 1000 α Reference Units/mL | 680 α Reference Units/mL | 390 α Reference Units/mL | 900 α Reference Units/mL |
| COCc1nc2c(N)nc3ccccc3c2n1Cc1ccccc1 [Example 104, 2-Methoxymethyl-1-phenylmethyl-1H-imidazo[4,5-c]quinolin-4-amine] | <380 Reference Units/mL | <380 Reference Units/mL | <380 Reference Units/mL | ˜780 Reference Units/mL | ˜780 Reference Units/mL | ˜380 Reference Units/mL | ≦660 Reference Units/mL | 2200 Reference Units/mL | <380 Reference Units/mL | 3400 Reference Units/mL | 4500 Reference Units/mL | ≦660 Reference Units/mL | <2.7 α Reference Units/mL | <2.7 α Reference Units/mL | 310 α Reference Units/mL | 180 α Reference Units/mL | 140 α Reference Units/mL | 310 α Reference Units/mL |
| CCOCc1nc2c(N)nc3ccccc3c2n1CCC(C)C.Cl [Example 109, 2-Ethoxymethyl-1-(3-methylbutyl)-1H-imidazo[4,5-c]quinolin-4-amine Hydrochloride] | – | – | – | – | – | – | – | – | – | – | – | – | <1.4 α Reference Units/mL | 1000 α Reference Units/mL | 1000 α Reference Units/mL | 97 α Reference Units/mL | 83 α Reference Units/mL | 78 α Reference Units/mL |
| COCc1nc2c(N)nc3ccccc3c2n1CC(C)(C)O [Example 111, 4-Amino-α,α-dimethyl-2-methoxymethyl-1H-imidazo[4,5-c]quinoline-1-ethanol] | – | – | – | – | – | – | – | – | – | – | – | – | 190 α Reference Units/mL | 65 α Reference Units/mL | 65 α Reference Units/mL | 49 α Reference Units/mL | 55 α Reference Units/mL | 61 α Reference Units/mL |

Source: patent US6465654B2, “Process for preparing 1-substituted, 2-substituted 1H-imidazo[4, 5-c]quinoline-4-amines” (3M Innovative Properties Company, priority 1991, dated 2002)
